According to patent US20240116985A1, “STAPLED PEPTIDES AND METHODS THEREOF” (priority 2020, published 2024):
Like-named read-outs stand apart in the source and are kept apart here.

Tests used:
[1] = molecular target: T1, beta-catenin/TCF4 engagement (Homo sapiens, UniProt P35222); assay: Nano-BRET target engagement assay (B-cat-Halo & TCF4-Luc in HEK293 cells); format: cell-based; details: read-out: NanoBRET Abs IC50
T1 construct: expressed in transfected cells; host or cells: HEK293
T1 sequence (P35222 1-781): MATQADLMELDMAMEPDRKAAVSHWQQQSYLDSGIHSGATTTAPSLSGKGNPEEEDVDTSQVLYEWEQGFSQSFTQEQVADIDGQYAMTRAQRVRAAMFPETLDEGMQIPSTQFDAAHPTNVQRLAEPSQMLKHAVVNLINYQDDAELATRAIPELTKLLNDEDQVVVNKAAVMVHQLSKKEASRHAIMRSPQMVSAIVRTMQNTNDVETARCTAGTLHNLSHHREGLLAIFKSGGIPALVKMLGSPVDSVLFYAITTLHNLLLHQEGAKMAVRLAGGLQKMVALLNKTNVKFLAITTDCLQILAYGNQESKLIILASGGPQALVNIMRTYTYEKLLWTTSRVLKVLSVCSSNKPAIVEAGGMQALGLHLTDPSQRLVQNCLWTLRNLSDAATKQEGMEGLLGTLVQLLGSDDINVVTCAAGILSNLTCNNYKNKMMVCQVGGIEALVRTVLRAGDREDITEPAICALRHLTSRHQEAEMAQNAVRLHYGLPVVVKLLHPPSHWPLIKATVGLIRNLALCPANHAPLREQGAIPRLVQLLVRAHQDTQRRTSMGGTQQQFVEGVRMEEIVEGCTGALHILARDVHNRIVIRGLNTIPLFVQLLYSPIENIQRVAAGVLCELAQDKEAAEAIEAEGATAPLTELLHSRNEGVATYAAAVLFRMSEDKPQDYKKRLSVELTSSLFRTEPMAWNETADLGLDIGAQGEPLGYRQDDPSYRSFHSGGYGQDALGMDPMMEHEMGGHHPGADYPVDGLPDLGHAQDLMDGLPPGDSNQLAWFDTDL

[2] = molecular target: T2, full-length beta-Catenin (Uniprot ID P35222) (Homo sapiens, UniProt P35222); assay: Fluorescence polarization IC50 (beta-catenin / 5FAM-TCF4 10-53 competition); format: binding; details: fluorescence polarization; read-out: beta-Catenin FP IC50
T2 construct: 10 nM full-length beta-Catenin (Uniprot ID P35222)
T2 sequence (P35222 1-781): T1 sequence (P35222 1-781)

Row | SMILES | IC50 [1] [µM] | IC50 [2] [µM] | IC50 ([1]; absolute IC50) [µM]
1 | CC(=O)N1CCC[C@]12CC=CCCCC1(CCCC=CCCCOC(=O)N3CC[C@@](C(=O)N[C@@H](Cc4ccccc4)C(=O)N[C@@H](Cc4csc5ccccc45)C(=O)N[C@@H](CCCCN)C(N)=O)(C3)NC(=O)[C@H](CC(N)=O)NC(=O)[C@H](Cc3ccccc3)NC(=O)[C@H](C)NC(=O)[C@H](CCCCNC(C)C)NC(=O)[C@H](CCC(N)=O)NC(=O)[C@H](CC(=O)O)NC1=O)NC(=O)[C@H](CC1CCCCC1)NC(=O)[C@H](CC(N)=O)NC2=O (stereo partly drawn) [I-2110, Ac-PL3-Asn-Cha-B5-Asp-Gln-iPrLys-Ala-Phe-Asn-PyrS2-Phe-BztA-Lys-NH2] | > 20 | 0.088 | –
2 | CC(=O)N1CCC[C@]12CC=CCCCC1(CCCC=CCCCOC(=O)N3CC[C@@](C(=O)N[C@@H](Cc4ccsc4)C(=O)N[C@H](C(=O)N[C@@H](CCC(N)=O)C(N)=O)[C@H](C)c4ccc5ccccc5c4)(C3)NC(=O)[C@H](CC(C)C)NC(=O)[C@H](Cc3ccccc3)NC(=O)[C@H](C)NC(=O)[C@H](C)NC(=O)[C@H](Cc3cccc(C(=O)O)c3)NC(=O)[C@H](CC(=O)O)NC1=O)NC(=O)[C@H](CC(C)(C)C)NC(=O)[C@H](CC(=O)O)NC2=O (stereo partly drawn) [I-2311, Ac-PL3-Asp-Npg-B5-Asp-3COOHF-Ala-Ala-Phe-Leu-PyrS2-3Thi-RbMe2NapA-Gln-NH2] | – | 0.005 | 5.2
3 | CC(=O)N1CCC[C@]12CC=CCCCC1(CCCC=CCCCOC(=O)N3CC[C@@](C(=O)N[C@@H](Cc4ccccc4C(F)(F)F)C(=O)N[C@@H](Cc4csc5ccccc45)C(=O)N[C@@H](C)C(N)=O)(C3)NC(=O)[C@H](CC(C)C)NC(=O)[C@H](Cc3ccccc3)NC(=O)[C@H](C)NC(=O)[C@H](CCC(N)=O)NC(=O)[C@H](Cc3cc(C(=O)O)cc(C(C)C)c3)NC(=O)[C@H](CC(=O)O)NC1=O)NC(=O)[C@H](CC(C)(C)C)NC(=O)[C@H](CC(=O)O)NC2=O (stereo partly drawn) [I-2431, Ac-PL3-Asp-Npg-B5-Asp-5iPr3COOHF-Gln-Ala-Phe-Leu-PyrS2-2F3MeF-BztA-Ala-NH2] | – | 0.033 | 7
4 | CC(=O)N1CCC[C@]12CC=CCCCC1(CCCC=CCCCOC(=O)N3CC[C@@](C(=O)N[C@@H](Cc4ccsc4)C(=O)N[C@@H](Cc4csc5ccccc45)C(=O)N[C@@H](Cc4ccccc4)C(N)=O)(C3)NC(=O)[C@H](CC(C)C)NC(=O)[C@H](Cc3ccccc3)NC(=O)[C@H](C)NC(=O)[C@H](CCCCN)NC(=O)[C@H](Cc3cccc(C(=O)O)c3)NC(=O)[C@H](CC(=O)O)NC1=O)NC(=O)[C@H](CC(C)(C)C)NC(=O)[C@H](CC(=O)O)NC2=O (stereo partly drawn) [I-1911, Ac-PL3-Asp-Npg-B5-Asp-3COOHF-Lys-Ala-Phe-Leu-PyrS2-3Thi-BztA-Phe-NH2] | > 20 | 0.038 | –
5 | CC(=O)N1CCC[C@]12CC=CCCCC1(CCCC=CCCCOC(=O)N3CC[C@@](C(=O)N[C@@H](Cc4ccsc4)C(=O)N[C@@H](Cc4ccc(C)c(C)c4)C(=O)N[C@@H](CCC(N)=O)C(N)=O)(C3)NC(=O)[C@H](CC(C)C)NC(=O)[C@H](Cc3ccccc3)NC(=O)[C@H](C)NC(=O)[C@H](C)NC(=O)[C@H](Cc3cccc(C(=O)O)c3)NC(=O)[C@H](CC(=O)O)NC1=O)NC(=O)[C@H](CC(C)(C)C)NC(=O)[C@H](CC(=O)O)NC2=O (stereo partly drawn) [I-2291, Ac-PL3-Asp-Npg-B5-Asp-3COOHF-Ala-Ala-Phe-Leu-PyrS2-3Thi-34MeF-Gln-NH2] | – | 0.005 | 4.9
6 | CCCCCCSSCCOC(=O)C[C@@H]1NC(=O)[C@]2(CC=CCCCC3(CCCC=CCCCOC(=O)N4CC[C@@](C(=O)N[C@@H](Cc5ccsc5)C(=O)N[C@@H](Cc5csc6ccccc56)C(=O)N[C@@H](CCC(N)=O)C(N)=O)(C4)NC(=O)[C@H](CC(C)C)NC(=O)[C@H](Cc4ccccc4)NC(=O)[C@H](C)NC(=O)[C@H](C)NC(=O)[C@H](CC(=O)O)NC(=O)[C@H](CC(=O)O)NC3=O)NC(=O)[C@H](CC(C)(C)C)NC1=O)CCCN2C(C)=O (stereo partly drawn) [I-1959, Ac-PL3-[EtSSHex]AspE-Npg-B5-Asp-Asp-Ala-Ala-Phe-Leu-PyrS2-3Thi-BztA-Gln-NH2] | > 20 | 0.412 | –
7 | CCCC[C@@H]1NC(=O)[C@H](Cc2ccccc2)NC(=O)[C@H](C)NC(=O)C(C)(C)NC(=O)[C@H](Cc2cccc(C(=O)O)c2)NC(=O)[C@H](CC(=O)O)NC(=O)C2(CCCC=CCCCOC(=O)N3CC[C@@](C(=O)N[C@@H](Cc4ccsc4)C(=O)N[C@@H](Cc4csc5ccccc45)C(=O)N[C@@H](CCC(=O)N4CCOCC4)C(N)=O)(C3)NC1=O)CCCC=CC[C@]1(CCCN1C(C)=O)C(=O)N[C@@H](CC(=O)O)C(=O)N[C@@H](CC(C)(C)C)C(=O)N2 (stereo partly drawn) [I-2553, Ac-PL3-Asp-Npg-B5-Asp-3COOHF-Aib-Ala-Phe-nLeu-PyrS2-3Thi-BztA-[Morph]GlnR-NH2] | – | 0.01 | 8.2
8 | CC(=O)N1CCC[C@]12CC=CCCCC1(CCCC=CCCCOC(=O)N3CC[C@@](C(=O)N[C@@H](Cc4ccsc4)C(=O)N[C@@H](Cc4csc5ccccc45)C(=O)N[C@@H](CCC(N)=O)C(N)=O)(C3)NC(=O)[C@H](CC(C)C)NC(=O)[C@H](Cc3ccccc3)NC(=O)[C@H](CCN3CCC(F)(F)CC3)NC(=O)[C@H](C)NC(=O)[C@H](CC(=O)O)NC(=O)[C@H](CC(=O)O)NC1=O)NC(=O)[C@H](CC(C)(C)C)NC(=O)[C@H](CC(=O)O)NC2=O (stereo partly drawn) [I-1505, Ac-PL3-Asp-Npg-B5-Asp-Asp-Ala-F2PipAbu-Phe-Leu-PyrS2-3Thi-BztA-Gln-NH2] | – | 0.039 | > 20
9 | CC(=O)N1CCC[C@]12CCCCCCC1(CCCCCCCCOC(=O)N3CC[C@@](C(=O)N[C@@H](Cc4ccsc4)C(=O)N[C@@H](Cc4csc5ccccc45)C(=O)N[C@H](C(N)=O)C(C)C)(C3)NC(=O)[C@H]([C@@H](C)O)NC(=O)[C@H](Cc3ccccc3)NC(=O)[C@H](C)NC(=O)[C@H](CCCCNC(C)C)NC(=O)[C@H](CN(CC(=O)O)CC(F)(F)F)NC(=O)[C@H](CC(=O)O)NC1=O)NC(=O)[C@H](CC(C)(C)C)NC(=O)[C@H](CC(=O)O)NC2=O (stereo partly drawn) [I-1770, Ac-PL3-Asp-Npg-B5-Asp-TfeGA-iPrLys-Ala-Phe-Thr-PyrS2-3Thi-BztA-Val-NH2] | – | 0.175 | > 20
10 | CC(=O)N1CCC[C@]12CC=CCCCC1(CCCC=CCCCOC(=O)N3CC[C@@](C(=O)N[C@@H](Cc4ccsc4)C(=O)N[C@@H](Cc4csc5ccccc45)C(=O)N[C@@H](CO)C(N)=O)(C3)NC(=O)[C@H](CC(C)C)NC(=O)[C@H](Cc3ccccc3)NC(=O)[C@H](C)NC(=O)[C@H](C)NC(=O)[C@H](CC(=O)O)NC(=O)[C@H](CC(=O)O)NC1=O)NC(=O)[C@H](CC(C)(C)C)NC(=O)[C@H](CC(=O)O)NC2=O (stereo partly drawn) [I-1493, Ac-PL3-Asp-Npg-B5-Asp-Asp-Ala-Ala-Phe-Leu-PyrS2-3Thi-BztA-Ser-NH2] | – | 0.01 | 4.9
11 | CC(=O)N1CCC[C@]12CC=CCCCC1(CCCC=CCCCOC(=O)N3CC[C@@](C(=O)N[C@@H](Cc4ccccc4C(F)(F)F)C(=O)N[C@@H](Cc4ccc5c(c4)CCC5)C(=O)N[C@@H](C)C(N)=O)(C3)NC(=O)[C@H](CC(C)C)NC(=O)[C@H](Cc3ccccc3)NC(=O)[C@H](C)NC(=O)[C@H](CCC(N)=O)NC(=O)[C@H](Cc3cccc(C(=O)O)c3)NC(=O)[C@H](CC(=O)O)NC1=O)NC(=O)[C@H](CC(C)(C)C)NC(=O)[C@H](CC(=O)O)NC2=O (stereo partly drawn) [I-2298, Ac-PL3-Asp-Npg-B5-Asp-3COOHF-Gln-Ala-Phe-Leu-PyrS2-2F3MeF-5IndA-Ala-NH2] | – | 0.008 | 4.6
